Results from the NIST ThermoML archive (doi:10.1021/acs.jced.5b00200).
“And” between values parts separate entries of the source, which are not always exact repeats. Equal entries are not always repeated. ± gives the expanded uncertainty stated by the source.

Assay: wn = mass fraction of the nth substance listed
Details: 297.15 K, 100 kPa, Liquid, Alternating current cell with electrodes

Structure (SMILES) | electrical conductivity (w1 = 0.097) | electrical conductivity (w1 = 0.047)
CC(C)O [propan-2-ol] + O | 0.0001 S/m | 
CCC(C)O (stereo not given) [butan-2-ol] + O | 0.0001 S/m | 
CC(=O)[O-].[K+] [potassium ethanoate] + O |  | 0.0484 S/m and 0.0479 S/m
CC(=O)[O-].[NH4+] [ammonium acetate] + O |  | 0.0479 ± 0.004 S/m
CC(=O)[O-].[Na+] [sodium ethanoate] + O |  | 0.0438 S/m and 0.0441 S/m
